# Measurements published in patent US20050119275A1, “Salt and crystal forms of (5-chloro-2-{2-[4-(4-fluoro-benzyl)-(2R,5S)-2,5-dimethyl-piperazin-1-yl]-2-oxo-ethoxy}-phenyl)-methanesulfonic acid” (Pfizer Inc., priority 2003, published 2005).
# Legend:
# CCR1 [1] = biological target: T1, CCR1 (Homo sapiens, UniProt P32246); experiment: Chemotaxis assay (Boyden chamber, MIP-1α induced migration); type: cell-based; parameters: THP-1 cells (ATCC TIB-202), primary human monocytes, or primary lymphocytes, isolated by standard techniques can then be added to the upper chambers; endogenous in cells; host or cells: THP-1 cells (ATCC TIB-202), primary human monocytes or primary lymphocytes; settings: statement in words
# T1 sequence (P32246 1-355): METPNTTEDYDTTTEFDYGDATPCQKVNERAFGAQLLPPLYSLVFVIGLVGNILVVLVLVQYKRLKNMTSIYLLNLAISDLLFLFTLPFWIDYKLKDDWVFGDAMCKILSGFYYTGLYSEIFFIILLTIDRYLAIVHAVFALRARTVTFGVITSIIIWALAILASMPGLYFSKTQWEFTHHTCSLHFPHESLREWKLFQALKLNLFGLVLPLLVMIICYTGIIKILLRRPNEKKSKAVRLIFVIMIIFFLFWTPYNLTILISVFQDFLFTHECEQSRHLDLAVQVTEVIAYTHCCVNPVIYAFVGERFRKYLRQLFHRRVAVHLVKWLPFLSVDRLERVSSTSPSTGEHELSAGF
# From the text: The activity of the compounds of the invention can be assessed according to procedures know to those of ordinary skill in the art. Examples of recognized methods for determining CCR1 induced migration can be found in Coligan, J. E., Kruisbeek, A. M., Margulies, D. H., Shevach, E. M., Strober, W. editors: Current Protocols In Immunology, 6.12.1-6.12.3. (John Wiley and Sons, NY, 1991). One specific example of how to determine the activity of a compound for inhibiting migration is described in detail below.
# The ability of compounds to inhibit the chemotaxis to various chemokines can be evaluated using standard 48 or 96 well Boyden Chambers with a 5 micron polycarbonate filter. […] The amount of agonist chosen is that determined to give the maximal amount of chemotaxis in this system (e.g., 1 nM for MIP-1α should be adequate). […]
# After a suitable incubation period at 37 degrees centigrade (e.g. 3.5 hours for THP-1 cells, 90 minutes for primary monocytes), the chamber is removed, the cells in the upper chamber aspirated, the upper part of the filter wiped and the number of cells migrating can be determined according to the following method.
# For THP-1 cells, the chamber (a 96 well variety manufactured by Neuroprobe) can be centrifuged to push cells off the lower chamber and the number of cells can be quantitated against a standard curve by a color change of the dye fluorocein diacetate. […]
# CCR1 [2] = biological target: T1, CCR1; experiment: Inhibition of MIP-1α (CCL3) binding to its receptor CCR1; settings: CCR1 found on inflammatory and immunomodulatory cells; statement in words
structure (smiles),measurement,setting,value
"C[C@@H]1CN(Cc2ccc(F)cc2)[C@@H](C)CN1C(=O)COc1ccc(Cl)cc1CS(=O)(=O)O [(5-Chloro-2-{2-[4-(4-fluoro-benzyl)-(2R,5S)-2,5-dimethyl-piperazin-1-yl]-2-oxo-ethoxy}-phenyl)-methanesulfonic acid]",inhibition of MIP-1α (and related chemokines) induced chemotaxis of THP-1 cells and human leukocytes,CCR1 [1],inhibits
same,inhibition of MIP-1α (CCL3) binding to its receptor CCR1,CCR1 [2],potent inhibitor
